Laboratory results published in the NIST ThermoML archive (doi:10.1016/j.fluid.2006.12.016).
Numbers after ± are expanded uncertainties.

Settings: 101.33 kPa, Liquid

SMILES: CCCCn1cc[n+](C)c1.F[B-](F)(F)F [1-butyl-3-methylimidazolium tetrafluoroborate]
- mass density (293.15 K): 1205.89 ± 3 kg/m3
- viscosity (293.15 K): 136.3 ± 18 mPa·s
- mass density (294.15 K): 1205.17 ± 3 kg/m3
- mass density (295.15 K): 1204.46 ± 3 kg/m3
- mass density (296.15 K): 1203.73 ± 3 kg/m3
- mass density (297.15 K): 1203 ± 3 kg/m3
- mass density (298.15 K): 1202.3 ± 3 kg/m3
- viscosity (298.15 K): 103.8 ± 10 mPa·s
- mass density (299.15 K): 1201.57 ± 2.9 kg/m3
- mass density (300.15 K): 1200.85 ± 2.9 kg/m3
- mass density (301.15 K): 1200.13 ± 2.9 kg/m3
- mass density (302.15 K): 1199.43 ± 2.9 kg/m3
- mass density (303.15 K): 1198.71 ± 2.9 kg/m3
- viscosity (303.15 K): 80.6 ± 5.2 mPa·s
- mass density (304.15 K): 1198 ± 2.9 kg/m3
- mass density (305.15 K): 1197.28 ± 2.9 kg/m3
- mass density (306.15 K): 1196.58 ± 2.9 kg/m3
- mass density (307.15 K): 1195.85 ± 2.9 kg/m3
- mass density (308.15 K): 1195.16 ± 2.9 kg/m3
- viscosity (308.15 K): 64 ± 2.3 mPa·s
- mass density (309.15 K): 1194.44 ± 2.9 kg/m3
- mass density (310.15 K): 1193.73 ± 2.9 kg/m3
- mass density (311.15 K): 1193.02 ± 2.9 kg/m3
- mass density (312.15 K): 1192.32 ± 2.9 kg/m3
- mass density (313.15 K): 1191.63 ± 2.9 kg/m3
- viscosity (313.15 K): 51.5 ± 1.1 mPa·s
- mass density (314.15 K): 1190.9 ± 2.9 kg/m3
- mass density (315.15 K): 1190.2 ± 2.9 kg/m3
- mass density (316.15 K): 1189.49 ± 2.8 kg/m3
- mass density (317.15 K): 1188.78 ± 2.8 kg/m3
- mass density (318.15 K): 1188.08 ± 2.8 kg/m3
- viscosity (318.15 K): 42.1 ± 1.6 mPa·s
- mass density (319.15 K): 1187.36 ± 2.8 kg/m3
- mass density (320.15 K): 1186.66 ± 2.8 kg/m3
- mass density (321.15 K): 1185.96 ± 2.8 kg/m3
- mass density (322.15 K): 1185.27 ± 2.8 kg/m3
- mass density (323.15 K): 1184.55 ± 2.8 kg/m3
- viscosity (323.15 K): 34.9 ± 1.4 mPa·s

SMILES: CCCCCCn1cc[n+](C)c1.F[B-](F)(F)F [1-hexyl-3-methylimidazolium tetrafluoroborate]
- mass density (288.15 K): 1151.49 ± 2.5 kg/m3
- viscosity (288.15 K): 315.7 ± 78 mPa·s
- mass density (289.15 K): 1150.78 ± 2.5 kg/m3
- mass density (290.15 K): 1150.08 ± 2.5 kg/m3
- mass density (291.15 K): 1149.37 ± 2.5 kg/m3
- mass density (292.15 K): 1148.66 ± 2.5 kg/m3
- mass density (293.15 K): 1147.96 ± 2.5 kg/m3
- viscosity (293.15 K): 232.8 ± 48 mPa·s
- mass density (294.15 K): 1147.25 ± 2.5 kg/m3
- mass density (295.15 K): 1146.56 ± 2.5 kg/m3
- mass density (296.15 K): 1145.85 ± 2.5 kg/m3
- mass density (297.15 K): 1145.15 ± 2.5 kg/m3
- mass density (298.15 K): 1144.45 ± 2.5 kg/m3
- viscosity (298.15 K): 174.1 ± 29 mPa·s
- mass density (299.15 K): 1143.75 ± 2.5 kg/m3
- mass density (300.15 K): 1143.04 ± 2.5 kg/m3
- mass density (301.15 K): 1142.34 ± 2.5 kg/m3
- mass density (302.15 K): 1141.65 ± 2.5 kg/m3
- mass density (303.15 K): 1140.96 ± 2.4 kg/m3
- viscosity (303.15 K): 132.1 ± 17 mPa·s
- mass density (304.15 K): 1140.25 ± 2.4 kg/m3
- mass density (305.15 K): 1139.56 ± 2.4 kg/m3
- mass density (306.15 K): 1138.87 ± 2.4 kg/m3
- mass density (307.15 K): 1138.16 ± 2.4 kg/m3
- mass density (308.15 K): 1137.48 ± 2.4 kg/m3
- viscosity (308.15 K): 103 ± 10 mPa·s
- mass density (309.15 K): 1136.77 ± 2.4 kg/m3
- mass density (310.15 K): 1136.08 ± 2.4 kg/m3
- mass density (311.15 K): 1135.39 ± 2.4 kg/m3
- mass density (312.15 K): 1134.7 ± 2.4 kg/m3
- mass density (313.15 K): 1134.03 ± 2.4 kg/m3
- viscosity (313.15 K): 81.7 ± 5.5 mPa·s
- mass density (314.15 K): 1133.33 ± 2.4 kg/m3
- mass density (315.15 K): 1132.64 ± 2.4 kg/m3
- mass density (316.15 K): 1131.95 ± 2.4 kg/m3
- mass density (317.15 K): 1131.28 ± 2.4 kg/m3
- mass density (318.15 K): 1130.59 ± 2.4 kg/m3
- viscosity (318.15 K): 65.9 ± 2.5 mPa·s
- mass density (319.15 K): 1129.9 ± 2.4 kg/m3
- mass density (320.15 K): 1129.22 ± 2.4 kg/m3
- mass density (321.15 K): 1128.53 ± 2.3 kg/m3
- mass density (322.15 K): 1127.87 ± 2.3 kg/m3
- mass density (323.15 K): 1127.17 ± 2.3 kg/m3
- viscosity (323.15 K): 53.9 ± 1.2 mPa·s

SMILES: CCCCCCCC[n+]1ccn(C)c1.F[B-](F)(F)F [1-methyl-3-octylimidazolium tetrafluoroborate]
- mass density (288.15 K): 1110.37 ± 2.2 kg/m3
- viscosity (288.15 K): 412.3 ± 120 mPa·s
- mass density (289.15 K): 1109.66 ± 2.2 kg/m3
- mass density (290.15 K): 1108.98 ± 2.2 kg/m3
- mass density (291.15 K): 1108.29 ± 2.2 kg/m3
- mass density (292.15 K): 1107.6 ± 2.2 kg/m3
- mass density (293.15 K): 1106.92 ± 2.2 kg/m3
- viscosity (293.15 K): 300.9 ± 73 mPa·s
- mass density (294.15 K): 1106.24 ± 2.2 kg/m3
- mass density (295.15 K): 1105.55 ± 2.2 kg/m3
- mass density (296.15 K): 1104.87 ± 2.1 kg/m3
- mass density (297.15 K): 1104.18 ± 2.1 kg/m3
- mass density (298.15 K): 1103.51 ± 2.1 kg/m3
- viscosity (298.15 K): 222.8 ± 45 mPa·s
- mass density (299.15 K): 1102.82 ± 2.1 kg/m3
- mass density (300.15 K): 1102.13 ± 2.1 kg/m3
- mass density (301.15 K): 1101.45 ± 2.1 kg/m3
- mass density (302.15 K): 1100.77 ± 2.1 kg/m3
- mass density (303.15 K): 1100.09 ± 2.1 kg/m3
- viscosity (303.15 K): 168.9 ± 28 mPa·s
- mass density (304.15 K): 1099.41 ± 2.1 kg/m3
- mass density (305.15 K): 1098.73 ± 2.1 kg/m3
- mass density (306.15 K): 1098.05 ± 2.1 kg/m3
- mass density (307.15 K): 1097.35 ± 2.1 kg/m3
- mass density (308.15 K): 1096.69 ± 2.1 kg/m3
- viscosity (308.15 K): 131.2 ± 17 mPa·s
- mass density (309.15 K): 1096 ± 2.1 kg/m3
- mass density (310.15 K): 1095.32 ± 2.1 kg/m3
- mass density (311.15 K): 1094.64 ± 2.1 kg/m3
- mass density (312.15 K): 1093.96 ± 2.1 kg/m3
- mass density (313.15 K): 1093.29 ± 2.1 kg/m3
- viscosity (313.15 K): 102.9 ± 10 mPa·s
- mass density (314.15 K): 1092.6 ± 2 kg/m3
- mass density (315.15 K): 1091.92 ± 2 kg/m3
- mass density (316.15 K): 1091.25 ± 2 kg/m3
- mass density (317.15 K): 1090.57 ± 2 kg/m3
- mass density (318.15 K): 1089.89 ± 2 kg/m3
- viscosity (318.15 K): 81.8 ± 5.5 mPa·s
- mass density (319.15 K): 1089.23 ± 2 kg/m3
- mass density (320.15 K): 1088.54 ± 2 kg/m3
- mass density (321.15 K): 1087.88 ± 2 kg/m3
- mass density (322.15 K): 1087.21 ± 2 kg/m3
- mass density (323.15 K): 1086.51 ± 2 kg/m3
- viscosity (323.15 K): 66.7 ± 2.7 mPa·s
